Measurements published in a compilation of properties of binary mixtures (doi:10.1016/j.molliq.2017.12.015).

Test: xn = mol fraction of the nth substance listed
Conditions: 100 kPa

CCOCCO + CCCC[n+]1ccn(C)c1.O=S(=O)([N-]S(=O)(=O)C(F)(F)F)C(F)(F)F
speed of sound [m/s]
Conditions	x2 = 0	x2 = 0.1036	x2 = 0.1905	x2 = 0.2965	x2 = 0.3882	x2 = 0.489	x2 = 0.5889	x2 = 0.7018	x2 = 0.7928	x2 = 0.9071
298.15 K	1302.8	1279.9	–	–	1240.5	1234.5	1231.4	1230.7	–	1228.3
303.15 K	1285.1	1264.6	1246.6	1234.2	–	1223.9	1219.6	1219	1218.4	1217.3
308.15 K	1267.3	1248.9	1232.1	1220.6	1214.5	1210.4	1207.6	1207.2	1206.9	1206.1
313.15 K	–	1230.1	1217.7	–	–	1198	1197.7	1196.5	1196	1195
318.15 K	1232	1217.4	1203.3	–	–	1187.7	1186.9	1185.9	–	1185
323.15 K	1214.3	1201.5	1189	–	1176.2	1175.5	1175	1174.9	1174.3	1174

CCCC[n+]1ccn(C)c1.O=S(=O)([N-]S(=O)(=O)C(F)(F)F)C(F)(F)F + CCOCCO
x1 = 1
Conditions	speed of sound [m/s]
298.15 K	1227.8
303.15 K	1216.7
308.15 K	1205.8
313.15 K	1194.9
318.15 K	1184.2
323.15 K	1173.6
